The subject of series [1] is form deprivation-induced myopia (FDM). The series is described as follows: Form deprivation-induced myopia (FDM) chick model. It is filed as in vivo. The settings on record: FIG. 1 Panel A; for efficacy in FDM chick model: intravitreal injection day 2 and day 4, readout day 5; for change in refractive error (goggled eye value minus ungoggled eye value): with respect to 5% v/v ethanol solution.

Series [2] concerns myopia progression. The settings on record: higher doses; cited from earlier work.
Series [3] can be described thus: Methyl atropine in lowered-pH phosphate vehicles with tonicity agents. It is filed as physicochemical. The source says: Therefore, lowering the initial pH value of the vehicles was deemed necessary to: i) ensure higher solubility; and ii) reach an ophthalmically-acceptable target pH (5-8). Also, the addition of tonicity agents was needed to reach the acceptable target range of 280-320 mOsm/kg (Table 4 and Table 5).

For series [4], the target named is T1, M5 muscarinic receptor (Homo sapiens, UniProt P08912).
T1 sequence (P08912 1-532): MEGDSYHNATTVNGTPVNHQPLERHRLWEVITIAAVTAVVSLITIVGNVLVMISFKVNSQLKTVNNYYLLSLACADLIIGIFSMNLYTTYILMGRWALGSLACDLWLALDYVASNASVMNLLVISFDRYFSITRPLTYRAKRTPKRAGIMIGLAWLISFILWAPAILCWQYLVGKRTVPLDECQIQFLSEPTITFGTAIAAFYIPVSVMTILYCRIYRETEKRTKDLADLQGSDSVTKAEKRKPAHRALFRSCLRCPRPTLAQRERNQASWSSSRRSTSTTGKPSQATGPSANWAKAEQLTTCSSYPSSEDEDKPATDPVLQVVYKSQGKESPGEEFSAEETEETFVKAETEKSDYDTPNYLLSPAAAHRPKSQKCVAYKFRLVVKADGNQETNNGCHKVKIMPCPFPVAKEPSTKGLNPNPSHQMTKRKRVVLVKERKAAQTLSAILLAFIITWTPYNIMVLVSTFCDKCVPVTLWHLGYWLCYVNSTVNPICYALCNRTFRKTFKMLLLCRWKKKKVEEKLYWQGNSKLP
The series is described as follows: Muscarinic receptor radioligand displacement binding, M5. (In general: Displacement assays read how much labelled ligand stays bound in the presence of the test substance.)

For series [5], the target named is T2, M4 muscarinic receptor (Homo sapiens, UniProt P08173).
T2 sequence (P08173 1-479): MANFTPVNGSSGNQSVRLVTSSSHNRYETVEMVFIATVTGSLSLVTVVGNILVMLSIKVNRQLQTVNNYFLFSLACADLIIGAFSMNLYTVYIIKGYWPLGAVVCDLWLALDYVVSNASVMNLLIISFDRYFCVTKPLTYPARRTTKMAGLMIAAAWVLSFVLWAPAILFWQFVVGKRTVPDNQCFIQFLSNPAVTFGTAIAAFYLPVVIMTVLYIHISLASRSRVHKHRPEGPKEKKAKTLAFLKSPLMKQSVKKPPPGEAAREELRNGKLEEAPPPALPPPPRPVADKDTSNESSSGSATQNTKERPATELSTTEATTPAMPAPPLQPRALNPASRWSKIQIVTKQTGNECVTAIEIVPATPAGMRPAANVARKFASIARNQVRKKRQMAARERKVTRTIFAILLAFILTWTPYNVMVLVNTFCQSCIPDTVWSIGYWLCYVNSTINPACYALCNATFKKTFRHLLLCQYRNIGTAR
The series is described as follows: Muscarinic receptor radioligand displacement binding, M4.

Series [6] has as its target T3, M2 muscarinic receptor (Homo sapiens, UniProt P08172).
T3 sequence (P08172 1-466): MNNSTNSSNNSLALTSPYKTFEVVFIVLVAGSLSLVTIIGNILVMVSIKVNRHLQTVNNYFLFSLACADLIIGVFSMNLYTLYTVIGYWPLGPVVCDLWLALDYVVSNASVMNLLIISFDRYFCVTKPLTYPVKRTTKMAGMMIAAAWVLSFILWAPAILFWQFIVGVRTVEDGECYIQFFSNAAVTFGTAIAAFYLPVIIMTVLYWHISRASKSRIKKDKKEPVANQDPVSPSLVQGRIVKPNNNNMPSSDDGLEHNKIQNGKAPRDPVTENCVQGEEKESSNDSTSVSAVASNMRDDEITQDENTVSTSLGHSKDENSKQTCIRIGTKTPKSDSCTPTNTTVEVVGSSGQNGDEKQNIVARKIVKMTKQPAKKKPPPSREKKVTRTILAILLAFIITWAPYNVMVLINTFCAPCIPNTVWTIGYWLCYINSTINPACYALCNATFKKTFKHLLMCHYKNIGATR
Nature of the series: Muscarinic receptor radioligand displacement binding, M2.

Series [7] can be described thus: Solubility screen in two simple vehicles, pH 7.4. The following applies: for pH of the formulation: pH 7.4.
The target in series [8] is M3 muscarinic receptor (Homo sapiens, UniProt P20309). Nature of the series: Muscarinic receptor radioligand displacement binding, M3.
The target in series [9] is T4, M1 muscarinic receptor (Homo sapiens, UniProt P11229).
T4 sequence (P11229 1-460): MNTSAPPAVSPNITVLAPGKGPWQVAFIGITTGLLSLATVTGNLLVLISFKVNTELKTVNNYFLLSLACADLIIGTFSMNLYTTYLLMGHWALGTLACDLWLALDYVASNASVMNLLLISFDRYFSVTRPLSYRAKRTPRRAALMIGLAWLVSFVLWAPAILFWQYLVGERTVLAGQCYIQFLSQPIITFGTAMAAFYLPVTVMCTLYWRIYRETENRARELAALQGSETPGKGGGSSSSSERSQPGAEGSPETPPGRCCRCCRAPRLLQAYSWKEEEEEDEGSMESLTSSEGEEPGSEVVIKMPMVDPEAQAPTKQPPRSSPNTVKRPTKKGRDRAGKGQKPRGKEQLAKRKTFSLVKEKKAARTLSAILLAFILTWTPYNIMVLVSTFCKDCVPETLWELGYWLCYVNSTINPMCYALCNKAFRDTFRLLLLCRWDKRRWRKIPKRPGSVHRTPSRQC
The series is described as follows: Muscarinic receptor radioligand displacement binding, M1.

Series [10] concerns muscarinic receptors. The series is described as follows: Binding selectivity across the muscarinic receptors. The settings on record: M1-M5.
Series [11] is described as follows: pH adjustment of methyl atropine and benzyl atropine solutions, HPLC analysis. It is filed as physicochemical. The following applies: for Actual concentration (HPLC): after pH adjustment; for Initial pH: before pH adjustment.
For series [12] the following is noted: 5 min, pH 7.4.
The mark [13] stands for this setting: 0.5% Sodium Chloride in 20 mM Phosphate Buffer, pH 2.71.
The mark [14] stands for this setting: 3% Mannitol in 20 mM Phosphate Buffer, pH 4.8.
The mark [15] stands for this setting: 3.7% Mannitol in 20 mM Phosphate Buffer, pH 2.82.
[16] abbreviates: […] Sodium Choride in 20 mM Phosphate Buffer, pH 4.8.

SMILES strings stand for the structures. Like-named read-outs stand apart in the source and are kept apart here.

The values below come from patent US12527739B2 (Alcon Inc., priority 2022, dated 2026).

A word on the Ki: it is a measure of affinity in units of concentration, obtained from inhibition or displacement.

Chain of M3 muscarinic receptor (P20309 whole entry): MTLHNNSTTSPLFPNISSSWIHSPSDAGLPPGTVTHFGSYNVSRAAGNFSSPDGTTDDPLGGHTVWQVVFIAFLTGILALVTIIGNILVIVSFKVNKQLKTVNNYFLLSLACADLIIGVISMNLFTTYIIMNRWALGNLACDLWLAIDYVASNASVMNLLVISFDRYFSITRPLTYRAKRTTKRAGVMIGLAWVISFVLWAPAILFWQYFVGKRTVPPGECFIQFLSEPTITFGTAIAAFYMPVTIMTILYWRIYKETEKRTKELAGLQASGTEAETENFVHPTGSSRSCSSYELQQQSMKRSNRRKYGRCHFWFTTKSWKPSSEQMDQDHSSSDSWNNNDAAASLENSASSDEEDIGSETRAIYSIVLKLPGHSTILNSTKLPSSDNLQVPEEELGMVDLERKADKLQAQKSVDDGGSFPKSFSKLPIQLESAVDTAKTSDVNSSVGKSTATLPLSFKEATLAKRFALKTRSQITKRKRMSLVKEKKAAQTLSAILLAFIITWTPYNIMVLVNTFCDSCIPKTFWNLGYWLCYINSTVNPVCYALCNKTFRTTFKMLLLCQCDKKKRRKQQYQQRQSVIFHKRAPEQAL

For the compound `CN1C2CCC1CC(OC(=O)C(F)(CO)c1ccccc1)C2` (stereo not shown) [fluoro-atropine], in [1], the “efficacy in FDM chick model” value is “effective” and the “change in refractive error (goggled eye value minus ungoggled eye value)” value is listed as “significantly decreased”.

With `CN1[C@@H]2CC[C@H]1C[C@@H](OC(=O)C(CO)c1ccccc1)C2` (mixture of isomers) [Atropine, atropine], in [2], the side effects result was “pupillary dilation and light sensitivity”.

`C[N+]1(C)[C@@H]2CC[C@H]1C[C@@H](OC(=O)C(CO)c1ccccc1)C2` (stereo partly shown) [Methyl Atropine, methyl atropine]: the Actual Concentration in series [3] (setting [13]) amounted to 5.38 mg/g; in [3] (setting [14]) it was 5.62 mg/g; in series [3] (setting [15]), 5.14 mg/g; in series [3] (setting [16]), 5.14 mg/g; in series [12] it was 1.63 mg/g. For the same compound, the “Final pH” value in series [3] (setting [13]) is recorded as 6.7; in series [3] (setting [14]), 8.8; in series [3] (setting [15]), 6.8; in [3] (setting [16]) it was 8.0. In addition, the Osmolality in series [3] (setting [13]) is reported as 202.5 mOsm/kg; in series [3] (setting [14]) it was 217 mOsm/kg; in series [3] (setting [15]), 262.5 mOsm/kg; in [3] (setting [16]), 182.5 mOsm/kg. In addition, the Ki in series [4] stood at 2.2 nM; in series [5], 1.2 nM; in series [6] it was 7.8 nM; in series [8], 2.4 nM; in series [9] it was 3.4 nM. The “efficacy in FDM chick model” value in [1] is listed as “effective”. The “change in refractive error (goggled eye value minus ungoggled eye value)” value in series [1] was “significantly decreased”. The “pH of the formulation” value was 9.2 in series [7] (30 mM Phosphate Buffer) and 9.6 in [7] (Phosphate Buffered Saline). In series [7] (both vehicles: 30 mM phosphate buffer pH 7.4 and phosphate-buffered saline pH 7.4), the “dissolution in vehicle (in words)” value is “did not entirely dissolve”. The “selectivity of binding to the muscarinic receptors” value in series [10] is recorded as “non-selective binding”. Further, the “Actual concentration (HPLC)” value in series [11] (30 mM Phosphate Buffer, pH 7.4) was 4.61 mg/g; in series [11] (Phosphate Buffered Saline), 4.89 mg/g. Further, the “Initial pH” value in series [11] (30 mM Phosphate Buffer, pH 7.4) was 8.1; in series [11] (Phosphate Buffered Saline) it was 9.3.
